pIC50: −log10 of the molar value. Active and inactive are the calls of the source. The calls are words filed in the database; no cut-off is given here.
Experiments:
[1] = Antiproliferative against rat NRK-49F cells measured after 48 hrs by CCK8 assay; type: toxicity, cell-based
[2] = Antiproliferative against HLF1 cells measured after 48 hrs by CCK8 assay; type: toxicity, cell-based; settings: human, HFL1 cells (description prints HLF1)
[3] = Antiproliferative against rat HSC-T6 cells measured after 48 hrs by CCK8 assay; type: toxicity, cell-based
[4] = target: T1, Mitogen-activated protein kinase kinase kinase 5 (Homo sapiens, UniProt Q99683); test: Inhibition of human recombinant ASK1 using MBP as substrate preincubated for 1 hr followed by reagent addition incubated for 40 mins by ATP-Glo kinase assay
T1 sequence (Q99683 whole entry): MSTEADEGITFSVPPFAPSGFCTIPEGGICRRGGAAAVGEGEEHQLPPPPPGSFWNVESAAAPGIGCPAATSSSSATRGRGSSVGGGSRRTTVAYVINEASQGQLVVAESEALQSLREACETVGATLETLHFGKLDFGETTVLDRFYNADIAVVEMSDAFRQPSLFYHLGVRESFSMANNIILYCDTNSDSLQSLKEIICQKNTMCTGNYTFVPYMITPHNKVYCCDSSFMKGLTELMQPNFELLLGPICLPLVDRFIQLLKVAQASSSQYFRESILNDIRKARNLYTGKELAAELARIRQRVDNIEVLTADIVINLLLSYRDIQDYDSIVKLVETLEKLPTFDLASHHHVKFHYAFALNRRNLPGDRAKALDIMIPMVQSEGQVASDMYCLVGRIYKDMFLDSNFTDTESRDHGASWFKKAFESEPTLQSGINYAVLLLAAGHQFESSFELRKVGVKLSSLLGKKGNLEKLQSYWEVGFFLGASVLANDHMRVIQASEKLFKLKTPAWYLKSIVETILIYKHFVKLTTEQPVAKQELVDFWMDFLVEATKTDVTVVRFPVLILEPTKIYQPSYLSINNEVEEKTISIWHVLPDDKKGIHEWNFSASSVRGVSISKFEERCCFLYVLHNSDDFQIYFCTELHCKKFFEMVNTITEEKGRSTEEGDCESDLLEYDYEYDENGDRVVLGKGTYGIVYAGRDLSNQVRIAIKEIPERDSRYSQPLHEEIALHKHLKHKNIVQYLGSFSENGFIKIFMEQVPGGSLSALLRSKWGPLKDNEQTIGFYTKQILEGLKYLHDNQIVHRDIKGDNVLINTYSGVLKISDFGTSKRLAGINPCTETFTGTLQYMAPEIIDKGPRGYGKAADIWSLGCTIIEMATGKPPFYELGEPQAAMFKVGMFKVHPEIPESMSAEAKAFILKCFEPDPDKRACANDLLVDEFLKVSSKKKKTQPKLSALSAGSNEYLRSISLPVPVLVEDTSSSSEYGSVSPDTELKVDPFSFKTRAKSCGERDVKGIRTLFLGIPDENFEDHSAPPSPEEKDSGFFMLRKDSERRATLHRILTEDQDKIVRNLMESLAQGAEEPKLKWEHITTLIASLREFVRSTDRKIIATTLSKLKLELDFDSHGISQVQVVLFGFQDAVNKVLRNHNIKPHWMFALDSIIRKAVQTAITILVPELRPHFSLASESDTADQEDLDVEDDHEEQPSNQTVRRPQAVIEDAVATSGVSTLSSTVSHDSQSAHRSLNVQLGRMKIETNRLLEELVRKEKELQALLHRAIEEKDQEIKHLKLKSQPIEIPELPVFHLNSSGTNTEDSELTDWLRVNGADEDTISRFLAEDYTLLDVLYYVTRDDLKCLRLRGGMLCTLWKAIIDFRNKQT

[5] = Antiproliferative against human BEAS-2B cells measured after 48 hrs by CCK8 assay; type: toxicity, cell-based
[6] = system: HFL1; test: Downregulation of phosphorylated ASK1 in TGF-beta1 induced HFL1 cells at 7.5 to 15 uM for 24 hrs by Western blotting analysis; type: functional, cell-based; settings: Homo sapiens, dose 7.5-15 µM
[7] = system: HFL1; test: Downregulation of phosphorylated p38 in TGF-beta1 induced HFL1 cells at 7.5 to 15 uM for 24 hrs by Western blotting analysis; type: functional, cell-based; settings: Homo sapiens, dose 7.5-15 µM
[8] = system: HFL1; test: Downregulation of phosphorylated JNK in TGF-beta1 induced HFL1 cells at 7.5 to 15 uM for 24 hrs by Western blotting analysis; type: functional, cell-based; settings: Homo sapiens, dose 7.5-15 µM
[9] = system: HFL1; test: Downregulation of phosphorylated PDK1 in TGF-beta1 induced HFL1 cells at 7.5 to 15 microM for 24 hrs by Western blotting analysis; type: functional, cell-based; settings: Homo sapiens, dose 7.5-15 µM
[10] = system: HFL1; test: Downregulation of phosphorylated Akt in TGF-beta1 induced HFL1 cells at 7.5 microM for 24 hrs by Western blotting analysis; type: functional, cell-based; settings: Homo sapiens
[11] = system: HFL1; test: Antifibrotic activity in TGF-beta1 induced HLF1 cells assessed as decrease in alpha SMA expression level measured at 7.5 to 15 uM after 24 hrs by Western blotting analysis; type: functional, cell-based; settings: Homo sapiens, dose 7.5-15 µM
[12] = system: HFL1; test: Antifibrotic activity in TGF-beta1 induced HLF1 cells assessed as decrease in collagen - I expression level measured at 7.5 to 15 uM after 24 hrs by Western blotting analysis; type: functional, cell-based; settings: Homo sapiens, dose 7.5-15 µM
[13] = system: HFL1; test: Antifibrotic activity in TGF-beta1 induced HLF1 cells assessed as decrease in phosphorylated smad2 level measured at 7.5 to 15 uM after 24 hrs by Western blotting analysis; type: functional, cell-based; settings: Homo sapiens, dose 7.5-15 µM
[14] = system: HFL1; test: Antifibrotic activity in TGF-beta1 induced HLF1 cells assessed as decrease in phosphorylated smad3 level measured at 7.5 to 15 uM after 24 hrs by Western blotting analysis; type: functional, cell-based; settings: Homo sapiens, dose 7.5-15 µM
[15] = system: HFL1; test: Induction of apoptosis in HLF1 cells assessed as decrease in antiapoptotic Bcl-2 protein at 7.5 to 15 uM for 24 hrs by Western blotting analysis; type: functional, cell-based; settings: Homo sapiens, dose 7.5-15 µM
[16] = system: HFL1; test: Induction of apoptosis in HLF1 cells assessed as viable cells at 15 uM incubated for 24 hrs measured by annexinV-FITC/PI based flow cytometric analysis (reference value: 88.3%); type: functional; settings: Homo sapiens, read-out: Activity
[17] = system: HFL1; test: Induction of apoptosis in HLF1 cells assessed as early apoptotic cells at 15 uM incubated for 24 hrs measured by annexinV-FITC/PI based flow cytometric analysis (reference value: 11.6%); type: functional, Homo sapiens
[18] = system: HFL1; test: Induction of apoptosis in HLF1 cells assessed as late apoptotic cells at 15 uM incubated for 24 hrs measured by annexinV-FITC/PI based flow cytometric analysis (reference value: 0.08%); type: functional, Homo sapiens
[19] = system: HFL1; test: Induction of apoptosis in HLF1 cells assessed as necrotic cells at 15 uM incubated for 24 hrs measured by annexinV-FITC/PI based flow cytometric analysis (reference value: 0%); type: functional, Homo sapiens
[20] = system: HFL1; test: Induction of apoptosis in HLF1 cells assessed as viable cells at 7.5 uM incubated for 24 hrs measured by annexinV-FITC/PI based flow cytometric analysis (reference value: 88.3%); type: functional; settings: Homo sapiens, read-out: Activity
[21] = system: HFL1; test: Induction of apoptosis in HLF1 cells assessed as early apoptotic cells at 7.5 uM incubated for 24 hrs measured by annexinV-FITC/PI based flow cytometric analysis (reference value: 11.6%); type: functional, Homo sapiens
[22] = system: HFL1; test: Induction of apoptosis in HLF1 cells assessed as late apoptotic cells at 7.5 uM incubated for 24 hrs measured by annexinV-FITC/PI based flow cytometric analysis (reference value: 0.08%); type: functional, Homo sapiens
[23] = system: HFL1; test: Induction of apoptosis in HLF1 cells assessed as necrotic cells at 7.5 uM incubated for 24 hrs measured by annexinV-FITC/PI based flow cytometric analysis (reference value: 0%); type: functional, Homo sapiens
[24] = system: HFL1; test: Induction of apoptosis in HLF1 cells assessed as viable cells at 22.5 uM incubated for 24 hrs measured by annexinV-FITC/PI based flow cytometric analysis (reference value: 88.3%); type: functional; settings: Homo sapiens, read-out: Activity
[25] = system: HFL1; test: Induction of apoptosis in HLF1 cells assessed as early apoptotic cells at 22.5 uM incubated for 24 hrs measured by annexinV-FITC/PI based flow cytometric analysis (reference value: 11.6%); type: functional, Homo sapiens
[26] = system: HFL1; test: Induction of apoptosis in HLF1 cells assessed as late apoptotic cells at 22.5 uM incubated for 24 hrs measured by annexinV-FITC/PI based flow cytometric analysis (reference value: 0.08%); type: functional, Homo sapiens
[27] = system: HFL1; test: Induction of apoptosis in HLF1 cells assessed as necrotic cells at 22.5 uM incubated for 24 hrs measured by annexinV-FITC/PI based flow cytometric analysis (reference value: 0%); type: functional, Homo sapiens

Structure (SMILES): O=C(Nc1cccc(-c2nncn2C2CC2)n1)c1cc(-c2cnn(C3CC3)c2)cn(Cc2ccccc2F)c1=O
- IC50 at 48 h [1]: 21.1 µM
- IC50 at 48 h [2]: 15.2 µM
- IC50 at 48 h [3]: 35.5 µM
- pIC50 [4]: 8.76
- IC50 at 48 h [5]: 36 µM
- Activity [6]: Active
- Activity [7]: Active
- Activity [8]: Active
- Activity [9]: Dose-Dependent Effect
- Activity [10]: Active
- Activity [11]: Dose-Dependent Effect
- Activity [12]: Dose-Dependent Effect
- Activity [13]: Active
- Activity [14]: Active
- Activity [15]: Active
- viability at 15 µM [16]: 67.6%
- Activity [17]: 32.3%
- Activity [18]: 0.079%
- Activity [19]: 0%
- viability at 7.5 µM [20]: 71.2%
- Activity [21]: 28.7%
- Activity [22]: 0.083%
- Activity [23]: 0%
- viability at 22.5 µM [24]: 69.6%
- Activity [25]: 30.3%
- Activity [26]: 0.104%
- Activity [27]: 0.015%

Source: ChEMBL document CHEMBL5352493, “Dual inhibitors of ASK1 and PDK1 kinases: Design, synthesis, molecular docking and mechanism studies of N-benzyl pyridine-2-one containing derivatives as anti-fibrotic agents” (Eur J Med Chem, 2023)
